Results from ChEMBL document CHEMBL2157914, “Synthesis, anti-inflammatory and antimicrobial evaluation of novel 1-acetyl-3,5-diaryl-4,5-dihydro (1H) pyrazole derivatives bearing urea, thiourea and sulfonamide moieties” (2012).
≈ marks a conversion by molar mass, not a printed value. Calls of active or inactive are those of the source. The calls are words filed in the database; no cut-off is given here.

Key:
[1] = system: Candida albicans; assay: Antifungal activity against Candida albicans MTCC 227 after 2 to 3 days by agar well diffusion method; assay type: functional
[2] = system: Aspergillus flavus; assay: Antifungal activity against Aspergillus flavus MTCC 277 after 2 to 3 days by agar well diffusion method; assay type: functional
[3] = system: Aspergillus niger; assay: Antifungal activity against Aspergillus niger MTCC 281 after 2 to 3 days by agar well diffusion method; assay type: functional
[4] = system: Salmonella typhimurium; assay: Antibacterial activity against Salmonella typhimurium MTCC 98 after 24 hrs by agar well diffusion method; assay type: functional, Salmonella enterica subsp. enterica serovar Typhimurium; conditions: Salmonella enterica, MTCC 98, 24 h
[5] = system: Staphylococcus aureus; assay: Antibacterial activity against Staphylococcus aureus MTCC 96 after 24 hrs by agar well diffusion method; assay type: functional; conditions: MTCC 96, 24 h
[6] = system: Bacillus subtilis; assay: Antibacterial activity against Bacillus subtilis MTCC 441 after 24 hrs by agar well diffusion method; assay type: functional; conditions: MTCC 441, 24 h
[7] = system: THP-1; assay: Antiinflammatory activity in human THP1 cells assessed as inhibition of LPS-stimulated TNFalpha production at 10 uM incubated for 30 mins prior to LPS-challenge measured 24 hrs post LPS challenge by ELISA; assay type: functional
[8] = system: THP-1; assay: Antiinflammatory activity in human THP1 cells assessed as inhibition of LPS-stimulated IL-6 production at 10 uM incubated for 30 mins prior to LPS-challenge measured 24 hrs post LPS-challenge by ELISA; assay type: functional
[9] = system: Fusarium solani; assay: Antifungal activity against Fusarium solani MTCC 350 after 2 to 3 days by agar well diffusion method; assay type: functional
[10] = system: Escherichia coli; assay: Antibacterial activity against Escherichia coli MTCC 443 after 24 hrs by agar well diffusion method; assay type: functional; conditions: MTCC 443, 24 h
[11] = system: Staphylococcus aureus; assay: Antibacterial activity against Staphylococcus aureus MTCC 96 up to 200 ug/mL after 24 hrs by agar well diffusion method; assay type: functional, organism-based
[12] = system: Aspergillus niger; assay: Antifungal activity against Aspergillus niger MTCC 281 up to 200 ug/mL after 2 to 3 days by agar well diffusion method; assay type: functional, organism-based
[13] = system: Fusarium solani; assay: Antifungal activity against Fusarium solani MTCC 350 up to 200 ug/mL after 2 to 3 days by agar well diffusion method; assay type: functional, organism-based
[14] = system: Aspergillus flavus; assay: Antifungal activity against Aspergillus flavus MTCC 277 up to 200 ug/mL after 2 to 3 days by agar well diffusion method; assay type: functional, organism-based
[15] = system: Bacillus subtilis; assay: Antibacterial activity against Bacillus subtilis MTCC 441 up to 200 ug/mL after 24 hrs by agar well diffusion method; assay type: functional, organism-based
[16] = system: Candida albicans; assay: Antifungal activity against Candida albicans MTCC 227 up to 200 ug/mL after 2 to 3 days by agar well diffusion method; assay type: functional, organism-based
[17] = system: Salmonella typhimurium; assay: Antibacterial activity against Salmonella typhimurium MTCC 98 up to 200 ug/mL after 24 hrs by agar well diffusion method; assay type: functional, organism-based; conditions: Salmonella enterica subsp. enterica serovar Typhimurium

Row | SMILES | MIC [1] | MIC [2] | MIC [3] | MIC [4] | MIC [5] | MIC [6] | inhibition at 10 µM [7] | inhibition at 10 µM [8] | MIC [9] | MIC [10] | Activity [11] | Activity [12] | Activity [13] | Activity [14] | Activity [15] | Activity [16] | Activity [17]
1 | COc1ccc(C2=NN(C(C)=O)C(c3ccc(NS(=O)(=O)c4ccc(OC(F)(F)F)cc4)cc3)C2)cc1OC (stereo not drawn) | 45 µg/mL (≈ 79.9 µM) | 20 µg/mL (≈ 35.5 µM) | 25 µg/mL (≈ 44.4 µM) | 65 µg/mL (≈ 115 µM) | 20 µg/mL (≈ 35.5 µM) | 45 µg/mL (≈ 79.9 µM) | 8% | 30% | 35 µg/mL (≈ 62.1 µM) | 15 µg/mL (≈ 26.6 µM) |  |  |  |  |  |  | 
2 | COc1ccc(C(=O)/C=C/c2ccc([N+](=O)[O-])cc2)cc1OC | 90 µg/mL (≈ 287 µM) |  |  | 90 µg/mL (≈ 287 µM) |  | 90 µg/mL (≈ 287 µM) | 0% | 0% |  | 80 µg/mL (≈ 255 µM) | inactive | inactive | inactive | inactive |  |  | 
3 | COc1cccc(NC(=S)Nc2ccc(C3CC(c4ccc(OC)c(OC)c4)=NN3C(C)=O)cc2)c1 (stereo not drawn) | 80 µg/mL (≈ 159 µM) | 95 µg/mL (≈ 188 µM) | 95 µg/mL (≈ 188 µM) | 90 µg/mL (≈ 178 µM) | 55 µg/mL (≈ 109 µM) | 90 µg/mL (≈ 178 µM) | 11% | 26% |  | 70 µg/mL (≈ 139 µM) |  |  |  |  |  |  | 
4 | COc1ccc(C2=NN(C(C)=O)C(c3ccc(NC(=S)Nc4ccccc4C(F)(F)F)cc3)C2)cc1OC (stereo not drawn) |  |  |  |  |  |  | 40% | 65% |  | 95 µg/mL (≈ 175 µM) | inactive | inactive | inactive | inactive | inactive | inactive | inactive
5 | COc1ccc(C2=NN(C(C)=O)C(c3ccc(NC(=O)Nc4ccc(C(F)(F)F)cc4Cl)cc3)C2)cc1OC (stereo not drawn) | 55 µg/mL (≈ 98 µM) | 20 µg/mL (≈ 35.7 µM) | 35 µg/mL (≈ 62.4 µM) | 80 µg/mL (≈ 143 µM) | 35 µg/mL (≈ 62.4 µM) | 60 µg/mL (≈ 107 µM) | 3% | 8% | 20 µg/mL (≈ 35.7 µM) | 45 µg/mL (≈ 80.2 µM) |  |  |  |  |  |  | 
6 | COc1ccc(C2=NN(C(C)=O)C(c3ccc(NS(=O)(=O)c4ccccc4C#N)cc3)C2)cc1OC (stereo not drawn) | 65 µg/mL (≈ 129 µM) | 70 µg/mL (≈ 139 µM) | 40 µg/mL (≈ 79.3 µM) | 90 µg/mL (≈ 178 µM) | 80 µg/mL (≈ 159 µM) | 65 µg/mL (≈ 129 µM) | 10% | 31% | 80 µg/mL (≈ 159 µM) | 90 µg/mL (≈ 178 µM) |  |  |  |  |  |  | 
7 | COc1ccc(NC(=S)Nc2ccc(C3CC(c4ccc(OC)c(OC)c4)=NN3C(C)=O)cc2)cc1 (stereo not drawn) | 90 µg/mL (≈ 178 µM) | 90 µg/mL (≈ 178 µM) |  | 35 µg/mL (≈ 69.4 µM) | 45 µg/mL (≈ 89.2 µM) | 65 µg/mL (≈ 129 µM) | 3% | 10% | 90 µg/mL (≈ 178 µM) | 20 µg/mL (≈ 39.6 µM) |  | inactive |  |  |  |  | 
8 | COc1ccc(C2=NN(C(C)=O)C(c3ccc(NC(=S)Nc4ccc(F)cc4)cc3)C2)cc1OC (stereo not drawn) |  |  |  |  | 80 µg/mL (≈ 162 µM) |  | 3% | 10% | 90 µg/mL (≈ 183 µM) | 80 µg/mL (≈ 162 µM) |  | inactive |  | inactive | inactive | inactive | inactive
9 | COc1ccc(C2=NN(C(C)=O)C(c3ccc(NC(=O)Nc4ccc(OC(F)(F)F)cc4)cc3)C2)cc1OC (stereo not drawn) | 25 µg/mL (≈ 46.1 µM) | 20 µg/mL (≈ 36.9 µM) | 35 µg/mL (≈ 64.5 µM) | 45 µg/mL (≈ 82.9 µM) | 30 µg/mL (≈ 55.3 µM) | 20 µg/mL (≈ 36.9 µM) | 8% | 11% | 20 µg/mL (≈ 36.9 µM) | 25 µg/mL (≈ 46.1 µM) |  |  |  |  |  |  | 
10 | COc1ccc(C2=NN(C(C)=O)C(c3ccc(NC(=S)Nc4ccc(C#N)cc4)cc3)C2)cc1OC (stereo not drawn) | 55 µg/mL (≈ 110 µM) | 35 µg/mL (≈ 70.1 µM) | 20 µg/mL (≈ 40 µM) | 45 µg/mL (≈ 90.1 µM) | 60 µg/mL (≈ 120 µM) | 35 µg/mL (≈ 70.1 µM) | 0% | 21% | 20 µg/mL (≈ 40 µM) | 30 µg/mL (≈ 60 µM) |  |  |  |  |  |  | 
11 | O=C(O)c1cn(C2CC2)c2cc(N3CCNCC3)c(F)cc2c1=O [CIPROFLOXACIN] |  |  |  | 20 µg/mL (≈ 60.4 µM) | 20 µg/mL (≈ 60.4 µM) | 15 µg/mL (≈ 45.3 µM) |  |  |  | 15 µg/mL (≈ 45.3 µM) |  |  |  |  |  |  | 
12 | COc1ccccc1NC(=S)Nc1ccc(C2CC(c3ccc(OC)c(OC)c3)=NN2C(C)=O)cc1 (stereo not drawn) | 90 µg/mL (≈ 178 µM) |  |  |  |  |  | 0% | 0% | 75 µg/mL (≈ 149 µM) | 90 µg/mL (≈ 178 µM) | inactive | inactive |  | inactive | inactive |  | inactive
13 | COc1ccc(C2=NN(C(C)=O)C(c3ccc(NC(=O)Nc4cccc(Cl)c4F)cc3)C2)cc1OC (stereo not drawn) | 90 µg/mL (≈ 176 µM) |  |  | 90 µg/mL (≈ 176 µM) | 90 µg/mL (≈ 176 µM) | 90 µg/mL (≈ 176 µM) | 61% | 76% |  | 90 µg/mL (≈ 176 µM) |  | inactive | inactive | inactive |  |  | 
